# Measurements as given in patent US9650399B2, “Salicylic acid derivatives, pharmaceutically acceptable salt thereof, composition thereof and method of use thereof” (The Governing Council of the University of Toronto, priority 2012, dated 2017).
# Like-named read-outs stand apart in the source and are kept apart here.
# Columns and labels:
# [1] = test system: BTSC30M; test: alamarBlue cell viability, BTSC 30M; format: cell-based, human; conditions: Homo sapiens
# Summary of the method: (§1)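 Patient-derived GBM brain tumour stem cells, dissociated spheres seeded at 1500 cells/96-well, or 3000 cells/96-well in one setup. Drug or DMSO vehicle added one day after plating. Viability read by alamarBlue after 72 hrs, triplicate wells.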
# [2] = test system: BTSC73M; test: alamarBlue cell viability, BTSC 73M; format: cell-based, human; conditions: Homo sapiens
# Summary of the method: as §1
# [3] = test system: pSTAT3 (Y705); test: Western blot of phosphorylated STAT3 in BTSCs; format: cell-based, human; conditions: for suppression of pSTAT3 (Y705): 1 μM
# Excerpt: Blots were stained with antibodies: phospho-Y705, phospho-S727, Bcl-xL, cyclin D1, PARP and Actin. Bands were visualized with the ECL PLUS™ Western Blotting Detection System and […]™ (Amersham). […] BTSC spheres were lysed in modified RIPA buffer supplemented with Complete Mini protease (Roche) and Halt phosphatase (Thermo Scientific) inhibitor cocktails. […] Blots were stained with the following antibodies: phospho-STAT3 Y705 (1:1000, Cell Signalling Technology), phospho-STAT3 S727 (1:1000, Cell Signalling Technology), STAT3 (1:1000, Santa Cruz Biotechnology), Bcl-xL (1:1000, Cell Signalling Technology), cyclin D1 (1:1000, Cell Signalling Technology) PARP (1:1000, Cell Signalling Technology) and Actin (1:2500, Santa Cruz Biotechnology). HRP conjugated secondary antibodies, goat anti-rabbit (Cell Signalling Technology) were used at 1:2000 and donkey anti-mouse, donkey anti-goat, and goat anti-rabbit, (Calbiochem) were used at 1:6000. Bands were visualized with the ECL Plus Western Blotting Detection System and Hyperfilm (Amersham).
# [4] = target: T1, JAK1 (Homo sapiens, UniProt P23458); test: HotSpot radiometric kinase assay, JAK1; format: biochemical; conditions: 5 uM compound, 10 μM ATP, duplicate (Data 1, Data 2); for remaining activity at 5 µM: read-out: % Enzyme activity relative to DMSO (control), JAK1
# T1 construct: purchased Reaction Biology Corporation
# Experimental: Briefly, this assay employs a radiometric detection system to measure kinase phosphoryl transfer activity.
# Test compound was evaluated at a single dose of 5 μM in duplicate mode. […] Reactions were carried out at 10 μM ATP.
# Preliminary screen against AKT, c-Src, ERK1, JaK1 and JaK2 was performed at Reaction Biology Corporation (www.reactionbiology.com, Malvern, Pa.) using the “HotSpot” assay platform. Specific kinase/substrate pairs along with their required cofactors were prepared in reaction buffer; 20 mM Hepes pH 7.5, 10 mM MgCl2, 1 mM EGTA, 0.02% Brij35, 0.02 mg/ml BSA, 0.1 mM Na3VO4, 2 mM DTT, 1% DMSO. The screen was completed in duplicate at a single concentration of 5 μM. The reaction well with the subject compound was treated with a mixture of ATP (Sigma, St. Louis Mo.) and ^33P ATP (Perkin Elmer, Waltham Mass.) to a final concentration of 10 μM. […] Reaction wells were kept at room temperature for 120 minutes, followed by spotting each of the reactions onto P81 ion exchange filter paper (Whatman Inc., Piscataway, N.J.). […] Background was subtracted using control reactions and the kinase activity data was expressed as the percent remaining kinase activity in test samples compared to vehicle (dimethyl sulfoxide) reactions. All IC50 values (table 3) and curve fitting were produced using Prism (GraphPad Software) (FIG. 5).
# [5] = test system: multiple myeloma tumor cell lines; test: MTT cytotoxicity in multiple myeloma cell lines; format: cell-based; conditions: 12 of 15 multiple myeloma cell lines, read-out: ED50 (the source's name)
# Experimental: For assessing MM cell viability, HMCL cells were seeded in 96-well plates in triplicate at a density of 20,000 cells/well and incubated with increasing concentrations of 16i and 21h or DMSO control and cell viability assessed by MTT (3-(4,5-dimethylthiazol)-2,5-diphenyl tetrazolium) colorimetric analysis. Results are reported at FIG. 12.
# [6] = blood brain barrier permeability: plasma and brain concentrations by LC-MS; format: in vivo, mice; conditions: for concentration at 30 min: mouse, plasma, intraperitoneal
# Experimental: Compounds 31 and 32 were given to three mice at 10 mg/kg BID via IP for five days and blood was collected at two time points (30 min. and 300 min.) for all mice. Plasma was separated from blood by centrifugation and stored at −20° C. until analysis. Brain was also collected from one mouse at each dose. Concentrations of compounds were determined using LC-MS.
# [7] = test system: ErbB2 mammary breast tumour cell lines (NIC); test: CyQuant proliferation assay in ErbB2 mammary tumour cell lines; format: cell-based
# Experimental: Compounds were assessed for inhibition of cell proliferation in ErbB2 mammary breast tumour cell lines (NIC) containing the activated form of ErbB2 using a CyQuant Assay. […] Three individual Mouse Mammary Tumour Virus ErbB2 mammary tumour cell lines (NIC) were resuspended in 10% FBS plus single quots DMEM media to a final concentration of 40,000 cells per 1 mL. Cells were plated at a concentration of 4,000 cells in 100 μL of media per well on 96 well NUNC plates and incubated for 24 h hours at 37° C. plus 5% CO2. […] Each condition was repeated in quadruplicate. At predetermined time points; at treatment, 24 h, 48 h and 72 h post treatment, the media was removed from the cells and the plates were stored at −80° C. wrapped in tin foil. When needed, all the plates were thawed to room temperature. Invitrogen's CyQuant Cell Proliferation Assay kit was used to measure DNA content. Following their directions, the cell lysis buffer was diluted 1:20 with water and then the CyQuant GR solution 1:400 in the lysis buffer. […] The plates were then incubated for 2-5 minutes protected from light, then read on a fluorescence microplate reader with filters for 480 nm excitation and 520 nm emission maxima. Quadruplicates were averaged and the error bars represent the S.E.M. In some cases the absorbance was normalized to the DMSO control.
# [8] = read-out: IC50 (nM) in BTSC 30M
# T1 sequence (P23458 whole entry): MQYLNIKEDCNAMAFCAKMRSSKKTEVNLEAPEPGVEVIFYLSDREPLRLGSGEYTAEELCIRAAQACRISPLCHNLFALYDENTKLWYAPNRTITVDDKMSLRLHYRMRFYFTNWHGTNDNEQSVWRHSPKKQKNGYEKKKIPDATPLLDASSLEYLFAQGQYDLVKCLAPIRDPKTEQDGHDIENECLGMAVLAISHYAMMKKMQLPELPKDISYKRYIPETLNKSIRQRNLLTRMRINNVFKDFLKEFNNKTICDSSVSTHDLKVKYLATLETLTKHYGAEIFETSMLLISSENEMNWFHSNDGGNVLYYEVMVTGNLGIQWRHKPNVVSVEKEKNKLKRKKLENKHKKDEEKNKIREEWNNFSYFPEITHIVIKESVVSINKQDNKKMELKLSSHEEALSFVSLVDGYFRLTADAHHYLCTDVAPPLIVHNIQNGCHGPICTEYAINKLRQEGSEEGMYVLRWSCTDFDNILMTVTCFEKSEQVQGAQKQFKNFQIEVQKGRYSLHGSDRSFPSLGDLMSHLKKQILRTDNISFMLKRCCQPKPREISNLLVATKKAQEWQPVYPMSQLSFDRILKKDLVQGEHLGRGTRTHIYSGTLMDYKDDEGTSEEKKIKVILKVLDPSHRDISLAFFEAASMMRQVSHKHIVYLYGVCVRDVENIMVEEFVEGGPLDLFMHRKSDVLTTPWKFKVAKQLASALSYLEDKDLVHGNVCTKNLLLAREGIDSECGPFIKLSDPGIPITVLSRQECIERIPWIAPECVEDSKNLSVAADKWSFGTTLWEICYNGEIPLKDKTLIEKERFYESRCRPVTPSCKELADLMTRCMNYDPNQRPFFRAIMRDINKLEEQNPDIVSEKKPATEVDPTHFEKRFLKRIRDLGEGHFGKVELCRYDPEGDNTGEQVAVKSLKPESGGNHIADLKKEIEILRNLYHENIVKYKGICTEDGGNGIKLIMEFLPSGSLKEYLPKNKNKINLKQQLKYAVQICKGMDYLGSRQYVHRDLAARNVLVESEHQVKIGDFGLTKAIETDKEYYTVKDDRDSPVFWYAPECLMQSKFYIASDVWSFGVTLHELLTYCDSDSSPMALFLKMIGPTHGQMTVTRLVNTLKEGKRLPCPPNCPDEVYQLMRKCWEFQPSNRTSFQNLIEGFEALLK
smiles,measurement,setting,value
"CN(CC(=O)N(Cc1ccc(C2CCCCC2)cc1)c1ccc(C(=O)O)cc1)S(=O)(=O)c1c(F)c(F)c(F)c(F)c1F [Compound 31, 4-(N-(4-cyclohexylbenzyl)-2-(2,3,4,5,6-pentafluoro-N-methylphenylsulfonamido)acetamido)benzoic acid]",IC50,"[1]; read-out: 30M IC50 (μM), Table 4 library screen, alamarBlue",0.432 µM
same,IC50,[1]; [8],0.432 ± 0.022 µM
same,IC50,"[1]; read-out: IC50 (μM) 30M, Table 2, BTSC 30M, alamarBlue, 72 hrs",0.432 ± 0.022 µM
same,IC50,"[1]; read-out: IC50 BTSC 30M, Table 6, in parallel with other cancer lines",0.5 µM
same,IC50,"[2]; Table 2, BTSC 73M, alamarBlue, 72 hrs, read-out: IC50 (μM) 73M",1.03 ± 0.031 µM
same,IC50,"[2]; Table 4 library screen, alamarBlue, read-out: 73M IC50",1.03 µM
same,pSTAT3 inhibition potency,"[3]; 0, 0.1, 0.5, 1.0 and 5.0 μM, Western blot",concentration-dependant decreases in pSTAT3 levels
same,pSTAT3 signalling,"[3]; 500 nM, Western blot, BTSCs",completely silenced pSTAT3 signalling
same,suppression of pSTAT3 (Y705),"[3]; Western blot, BTSCs",most suppression of pSTAT3 (Y705)
same,"pSTAT3 suppression, comparative Western blot","[3]; BTSC 73M, 1 μM inhibitor",equipotent pSTAT3 suppression
same,remaining activity at 5 µM,[4],101%
same,EC50,[5],2 to 6 µM
same,change of plasma concentration between 30 min. and 300 min,[6]; 10 mg/kg BID IP,did not change significantly
same,concentration in the brain,[6]; 10 mg/kg dosing (FIG. 18),up to 300 nM
same,concentration in the brain,"[6]; 10 mg/kg dosing, IP BID",about 0.3 μM
same,compound in plasma after 5 hr,[6]; both doses (10 and 25 mg/kg),no compound was detected
same,concentration in the brain,"[6]; dosing 10 mg/kg and 25 mg/kg, LCMS (FIG. 17)",up to 0.7 μM
same,concentration at 30 min,[6]; 10 mg/kg,240 nM
same,concentration at 30 min,[6]; 25 mg/kg,580 nM
same,cell proliferation in 2071 NIC cells,"[7]; 5 μM, CyQuant",completely inhibiting cell proliferation
same,potency in comparison with BP1-102,"[7]; NIC cell lines 2071, 8518 and 9822",more potent
"CN(CC(=O)N(Cc1ccc(C2CCCCC2)cc1)c1ccc(C(=O)NO)cc1)S(=O)(=O)c1c(F)c(F)c(F)c(F)c1F [Compound 32, 4-(N-(4-cyclohexylbenzyl)-2-(2,3,4,5,6-pentafluoro-N-methylphenylsulfonamido)acetamido)-N-hydroxybenzamide]",IC50,[1]; read-out: 30M IC50 (μM),1.14 µM
same,IC50,[1]; [8],1.136 ± 0.009 µM
same,IC50,[1]; read-out: IC50 BTSC 30M,0.971 µM
same,IC50,[2]; read-out: 73M IC50 (μM),1.52 µM
same,suppression of pSTAT3 (Y705),"[3]; Western blot, BTSCs",most suppression of pSTAT3 (Y705)
same,remaining activity at 5 µM,[4],101%
same,"% Enzyme activity relative to DMSO (control), JAK1","[4]; remaining activity, listed as SH-05-07",97.99%
